Source: US20190275012A9, “SUBSTITUTED THIAZOLO-PYRIDINE COMPOUNDS AS MALT1 INHIBITORS” (Lupin Limited, priority 2016, published 2019)

Legend:
OCI-Ly-10 cells = experiment: Anticancer assay (14 days), cell viability by CCK-8; format: cell-based; conditions: Homo sapiens, OCI-Ly10, 336 h, 14 days treatment, fresh treatment every 5th day, CCK-8 viability, read-out: Ly-10 (14d) inhibition IC50
Experimental: OCI-Ly-10 cells (UHN, Canada) seeded in culture media (IMDM+20% FBS) in 96-well plates were treated with various concentrations of the test compounds. Cells were treated for a period of 14 days (13-15 days depending on the confluency of cells) with fresh treatments every 5th day. After the first treatment, for all subsequent treatments, the cells were centrifuged, the spent media was removed and fresh media containing the test compound was added. Cell viability was assessed using CCK-8 kit (Dojindo Laboratories, China) as per manufacturer's instructions. Plates were read in colorimeter and absorbance was detected. (Detection at 450 nm; Background correction at 650 nm). % inhibition was calculated relative to the samples containing media with 0.1% DMSO alone as per the following formula

full length MALT1 enzyme = biological target: T1, full length MALT1 enzyme (Homo sapiens, UniProt Q9UDY8); experiment: MALT1 biochemical assay (fluorescence based, Ac-Leu-Arg-Ser-Arg-AMC cleavage); conditions: full length MALT1 protein, 2 h pre-incubation at RT, tetrapeptide substrate Ac-Leu-Arg-Ser-Arg-AMC, read-out: Malt 1 inhibition IC50
T1 construct: a fluorescence based assay with full length MALT1 enzyme
T1 sequence (Q9UDY8 1-824): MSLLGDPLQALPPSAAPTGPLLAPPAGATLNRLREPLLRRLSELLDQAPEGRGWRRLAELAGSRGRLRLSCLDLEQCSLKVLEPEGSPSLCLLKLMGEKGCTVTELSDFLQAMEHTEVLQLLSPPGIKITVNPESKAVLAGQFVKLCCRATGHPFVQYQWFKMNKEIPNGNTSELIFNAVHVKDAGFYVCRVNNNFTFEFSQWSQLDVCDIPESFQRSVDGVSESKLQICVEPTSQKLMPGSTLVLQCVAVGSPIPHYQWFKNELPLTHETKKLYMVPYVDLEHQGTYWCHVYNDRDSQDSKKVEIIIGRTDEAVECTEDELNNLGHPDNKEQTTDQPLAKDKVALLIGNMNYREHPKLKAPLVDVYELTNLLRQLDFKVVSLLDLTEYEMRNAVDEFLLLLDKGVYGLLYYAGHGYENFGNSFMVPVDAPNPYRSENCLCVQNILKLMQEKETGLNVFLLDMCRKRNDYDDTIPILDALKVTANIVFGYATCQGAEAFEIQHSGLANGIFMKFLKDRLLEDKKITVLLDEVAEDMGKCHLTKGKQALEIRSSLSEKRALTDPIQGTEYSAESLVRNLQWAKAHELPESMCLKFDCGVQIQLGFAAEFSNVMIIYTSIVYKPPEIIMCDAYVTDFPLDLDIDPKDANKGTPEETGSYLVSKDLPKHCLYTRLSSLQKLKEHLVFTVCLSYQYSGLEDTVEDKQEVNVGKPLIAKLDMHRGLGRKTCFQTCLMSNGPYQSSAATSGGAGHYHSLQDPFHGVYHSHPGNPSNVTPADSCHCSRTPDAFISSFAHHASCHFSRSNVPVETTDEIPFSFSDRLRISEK
Outline: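 Full-length MALT1 (100-300 ng/well) was pre-incubated with compound for 2 h at RT, then 100 μM Ac-LRSR-AMC was added for 4-12 h. Buffer was 50 mM MES, 150 mM NaCl, 0.1% CHAPS, 1 M ammonium citrate, 10 mM DTT, pH 7, with 0.5% DMSO. IC50 was derived from AMC fluorescence (ex 360/em 460 nm).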

[1] = tested on: NF-kB transcriptional activity in HEK-293-NF-kB-Luc cell line overexpressing MALT1; experiment: NF-kB reporter assay (luciferase, MALT1 stably overexpressed); format: cell-based; conditions: Homo sapiens, 24 h, HEK-293-NF-kB-Luc cells stably overexpressing MALT1, 24 h treatment, Bright Glo luminescence; read-out: NF-kB inhibition IC50
Outline: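 HEK-293-NF-κB-Luc cells stably overexpressing MALT1 were seeded overnight, then exposed to test compounds for 24 h. Bright Glo added 10 min at ambient temperature and luminescence read; % inhibition calculated against 0.1% DMSO controls.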

| IC50 (OCI-Ly-10 cells) | IC50 (full length MALT1 enzyme) | SMILES | IC50 [1] |
| --- | --- | --- | --- |
| 0.501 to 1.5 µM | 0.001 to 0.05 µM | CCOC(C)c1c(NC(=O)Nc2cnc(OC)c(Cl)c2)cnc2sc(C)nc12 (racemic) [Compound 162, 1-(5-Chloro-6-methoxypyridin-3-yl)-3-(7-(1-ethoxyethyl)-2-methylthiazolo[5,4-b]pyridin-6-yl)urea] | 0.001 to 0.1 µM |
| 0.026 to 0.1 µM | 0.001 to 0.05 µM | COC(c1c(NC(=O)Nc2cnc(-n3nccn3)c(C(F)(F)F)c2)cnc2sc(C)nc12)C(C)(C)C (single isomer, unassigned) [Compound 57b, 1-(6-(2H-1,2,3-Triazol-2-yl)-5-(trifluoromethyl)pyridin-3-yl)-3-(7-(1-methoxy-2,2-dimethylpropyl)-2-methylthiazolo[5,4-b]pyridin-6-yl)urea] | 0.001 to 0.1 µM |
| 0.026 to 0.1 µM | 0.051 to 0.1 µM | CCC(c1c(NC(=O)Nc2cnc(-n3nccn3)c(C(F)(F)F)c2)cnc2sc(C)nc12)N(C)C (single isomer, unassigned) [Compound 75b, 1-(6-(2H-1,2,3-Triazol-2-yl)-5-(trifluoromethyl)pyridin-3-yl)-3-(7-(1-(dimethylamino)propyl)-2-methylthiazolo[5,4-b]pyridin-6-yl)urea] | 0.001 to 0.1 µM |
| 0.0001 to 0.025 µM | 0.001 to 0.05 µM | Cc1nc2c(C(C3CC3)N(C)C)c(NC(=O)Nc3cnc(-n4nccn4)c(C(F)(F)F)c3)cnc2s1 (single isomer, unassigned) [Compound 76b, 1-(6-(2H-1,2,3-Triazol-2-yl)-5-(trifluoromethyl)pyridin-3-yl)-3-(7-(cyclopropyl(dimethylamino)methyl)-2-methylthiazolo[5,4-b]pyridin-6-yl)urea] | 0.001 to 0.1 µM |
| 0.026 to 0.1 µM | 0.001 to 0.05 µM | COC(c1c(NC(=O)Nc2cnc(-n3nccn3)c(Cl)c2)cnc2sc(C)nc12)C(C)C (single isomer, unassigned) [Compound 79b, 1-(5-Chloro-6-(2H-1,2,3-triazol-2-yl)pyridin-3-yl)-3-(7-(1-methoxy-2-methylpropyl)-2-methylthiazolo[5,4-b]pyridin-6-yl)urea] | 0.001 to 0.1 µM |
| 0.026 to 0.1 µM | 0.001 to 0.05 µM | COc1nc(-n2nccn2)c(C(F)(F)F)cc1NC(=O)Nc1cnc2sc(C)nc2c1C(OC)C(C)C (single isomer, unassigned) [Compound 80b, 1-(7-(1-Methoxy-2-methylpropyl)-2-methylthiazolo[5,4-b]pyridin-6-yl)-3-(2-methoxy-6-(2H-1,2,3-triazol-2-yl)-5-(trifluoromethyl)pyridin-3-yl)urea] | 0.001 to 0.1 µM |
| 0.026 to 0.1 µM | 0.001 to 0.05 µM | COc1nc(-n2nccn2)c(Cl)cc1NC(=O)Nc1cnc2sc(C)nc2c1C(OC)C(C)C (single isomer, unassigned) [Compound 81b, 1-(5-Chloro-2-methoxy-6-(2H-1,2,3-triazol-2-yl)pyridin-3-yl)-3-(7-(1-methoxy-2-methylpropyl)-2-methylthiazolo[5,4-b]pyridin-6-yl)urea] | 0.001 to 0.1 µM |
| 0.101 to 0.25 µM | 0.001 to 0.05 µM | COC(c1ccc(F)cc1)c1c(NC(=O)Nc2cnc(-n3nccn3)c(C(F)(F)F)c2)cnc2sc(C)nc12 (single isomer, unassigned) [Compound 85a, 1-(6-(2H-1,2,3-Triazol-2-yl)-5-(trifluoromethyl)pyridin-3-yl)-3-(7-((4-fluorophenyl)(methoxy)methyl)-2-methylthiazolo[5,4-b]pyridin-6-yl)urea] | 0.001 to 0.1 µM |
| 0.026 to 0.1 µM | 0.001 to 0.05 µM | COC(C)(c1c(NC(=O)Nc2ccc(-n3nccn3)c(C(F)(F)F)c2)cnc2sc(C)nc12)C1CC1 (single isomer, unassigned) [Compound 94b, 1-(4-(2H-1,2,3-triazol-2-yl)-3-(trifluoromethyl)phenyl)-3-(7-(1-cyclopropyl-1-methoxyethyl)-2-methylthiazolo[5,4-b]pyridin-6-yl)urea] | 0.001 to 0.1 µM |
| 0.0001 to 0.025 µM | 0.001 to 0.05 µM | COC(c1c(NC(=O)Nc2cnc(-n3nccn3)c(C(F)(F)F)c2)cnc2sc(C)nc12)C(F)(F)F (single isomer, unassigned) [Compound 95b, 1-(6-(2H-1,2,3-triazol-2-yl)-5-(trifluoromethyl)pyridin-3-yl)-3-(2-methyl-7-(2,2,2-trifluoro-1-methoxyethyl)thiazolo[5,4-b]pyridin-6-yl)urea] | 0.001 to 0.1 µM |
| 0.0001 to 0.025 µM | 0.001 to 0.05 µM | COC(C)c1c(NC(=O)Nc2ccc(-n3nccn3)c(C(F)(F)F)c2)cnc2sc(C)nc12 (single isomer, unassigned) [Compound 143b, 1-(4-(2H-1,2,3-Triazol-2-yl)-3-(trifluoromethyl)phenyl)-3-(7-(1-methoxyethyl)-2-methylthiazolo[5,4-b]pyridin-6-yl)urea] | 0.001 to 0.1 µM |
| 0.0001 to 0.025 µM | 0.001 to 0.05 µM | COC(c1c(NC(=O)Nc2ccc(-n3nccn3)c(Cl)c2)cnc2sc(C)nc12)C1CC1 (single isomer, unassigned) [Compound 144b, 1-(3-Chloro-4-(2H-1,2,3-triazol-2-yl)phenyl)-3-(7-(cyclopropyl(methoxy)methyl)-2-methylthiazolo[5,4-b]pyridin-6-yl)urea] | 0.001 to 0.1 µM |
| 0.0001 to 0.025 µM | 0.001 to 0.05 µM | CCC(OC)c1c(NC(=O)Nc2cnc(-n3nccn3)c(Cl)c2)cnc2sc(C)nc12 (single isomer, unassigned) [Compound 145b, 1-(5-Chloro-6-(2H-1,2,3-triazol-2-yl)pyridin-3-yl)-3-(7-(1-methoxypropyl)-2-methylthiazolo[5,4-b]pyridin-6-yl)urea] | 0.001 to 0.1 µM |
| 0.0001 to 0.025 µM | 0.001 to 0.05 µM | CCC(OC)c1c(NC(=O)Nc2ccc(-n3nccn3)c(C(F)(F)F)c2)cnc2sc(C)nc12 (single isomer, unassigned) [Compound 147b, 1-(4-(2H-1,2,3-Triazol-2-yl)-3-(trifluoromethyl)phenyl)-3-(7-(1-methoxypropyl)-2-methylthiazolo[5,4-b]pyridin-6-yl)urea] | 0.001 to 0.1 µM |
| 0.026 to 0.1 µM | 0.001 to 0.05 µM | COC(c1c(NC(=O)Nc2ccc(-n3nccn3)c(C(F)(F)F)c2)cnc2sc(C)nc12)C1CC1 (single isomer, unassigned) [Compound 153b, 1-(4-(2H-1,2,3-Triazol-2-yl)-3-(trifluoromethyl)phenyl)-3-(7-(cyclopropyl(methoxy)methyl)-2-methylthiazolo[5,4-b]pyridin-6-yl)urea] | 0.001 to 0.1 µM |
| 0.0001 to 0.025 µM | 0.001 to 0.05 µM | COC(C)c1c(NC(=O)Nc2ccc(-n3nccn3)c(Cl)c2)cnc2sc(C)nc12 (single isomer, unassigned) [Compound 158b, 1-(3-Chloro-4-(2H-1,2,3-triazol-2-yl)phenyl)-3-(7-(1-methoxyethyl)-2-methylthiazolo[5,4-b]pyridin-6-yl)urea] | 0.001 to 0.1 µM |
| 0.026 to 0.1 µM | 0.001 to 0.05 µM | CCOC(C)c1c(NC(=O)Nc2cnc(-n3nccn3)c(C(F)(F)F)c2)cnc2sc(C)nc12 (single isomer, unassigned) [Compound 165b, 1-(6-(2H-1,2,3-Triazol-2-yl)-5-(trifluoromethyl)pyridin-3-yl)-3-(7-(1-ethoxyethyl)-2-methylthiazolo[5,4-b]pyridin-6-yl)urea] | 0.001 to 0.1 µM |
| 0.251 to 0.5 µM | 0.051 to 0.1 µM | COC(C)c1c(NC(=O)Nc2cc(-n3nccn3)cc(C(F)(F)F)c2)cnc2sc(C)nc12 (single isomer, unassigned) [Compound 217b, (S) or (R)-1-(3-(2H-1,2,3-triazol-2-yl)-5-(trifluoromethyl)phenyl)-3-(7-(1-methoxyethyl)-2-methylthiazolo[5,4-b]pyridin-6-yl)urea] | 0.001 to 0.1 µM |
